Source: DBAASP
Converted amounts (≈) assume the structure as drawn. “And” between values parts separate entries of the source, which are not always exact repeats. Equal values may be shown once. Blank lines part the entries; values can stand above or below the compound they belong to.

What was measured:
Test in all cases: ≥ marks a high value that may be exact or a test limit, other limits are often not marked, values filed in µg/mL are converted to µM
[1] = tested on: Acinetobacter baumannii ATCC 17978
[2] = tested on: Acinetobacter baumannii AYE
[3] = tested on: Enterococcus faecalis NCTC 12201
[4] = tested on: Enterococcus faecalis NCTC 775
Klebsiella pneumoniae M6 = tested on: Klebsiella pneumoniae M6
[5] = tested on: Pseudomonas aeruginosa NCTC 13437
[6] = tested on: Pseudomonas aeruginosa PAO1
[7] = tested on: Staphylococcus aureus NCTC 13277
[8] = tested on: Staphylococcus aureus NCTC 13616
[9] = tested on: Staphylococcus aureus NCTC 6571
[10] = tested on: Escherichia coli K-12 594
[11] = tested on: Staphylococcus aureus ATCC 6538P
[12] = tested on: Staphylococcus aureus SR1550
[13] = tested on: Bacillus subtilis DSM 402
[14] = tested on: Escherichia coli DSM 30083
[15] = tested on: Staphylococcus aureus ATCC 43300
[16] = tested on: Staphylococcus aureus DSM 20231
[17] = tested on: Streptococcus gordonii ATCC 10558
[18] = tested on: Streptococcus mutans GS-5
[19] = tested on: Streptococcus mutans UA159
[20] = tested on: Streptococcus sanguinis ATCC 49295
[21] = tested on: Bacillus subtilis ATCC 6633
Escherichia coli K-12 = tested on: Escherichia coli K-12
[22] = tested on: Micrococcus luteus NCIMB 13267
[23] = tested on: Pseudomonas aeruginosa ATCC 27853
[24] = tested on: Staphylococcus aureus ATCC 6538
[25] = tested on: Bacillus subtilis CGMCC 1.3376
[26] = tested on: Escherichia coli CGMCC 1.8732
[27] = tested on: Klebsiella pneumoniae CGMCC 1.1736
[28] = tested on: Pseudomonas aeruginosa CGMCC 1.2421
[29] = tested on: Staphylococcus aureus CGMCC 1.8721
[30] = tested on: Staphylococcus epidermidis CGMCC 1.4260
Bacillus cereus = tested on: Bacillus cereus
[31] = tested on: Candida albicans MTCC 227
[32] = tested on: Escherichia coli DH5alpha
[33] = tested on: Fusarium solani MTCC 10158
[34] = tested on: Salmonella enterica subsp. enterica serovar Typhi
Vibrio cholerae = tested on: Vibrio cholerae
[35] = tested on: Xanthomonas axonopodis ITCC BD00029
[36] = tested on: Xanthomonas oryzae ITCC BB00026
[37] = tested on: Aspergillus niger CECT 2694
[38] = tested on: Erwinia amylovora PMV 6076
[39] = tested on: Fusarium oxysporum f. sp. lycopersici ATCC 201829
[40] = tested on: Penicillium expansum EPS 26
[41] = tested on: Pseudomonas syringae EPS 94
[42] = tested on: Rhizopus stolonifer CECT 2344
[43] = tested on: Xanthomonas vesicatoria 2133-2

MIC [1]: 5.55 µM and 11.1 µM
MIC [2]: 5.55 µM (≈ 7.99 µg/mL)
MIC [3]: ≥ 88.8 µM
MIC [4]: 22.2 µM and ≥ 44.4 µM
MIC (Klebsiella pneumoniae M6): 22.2 µM and ≥ 44.4 µM
MIC [5]: ≥ 88.8 µM
MIC [6]: 88.8 µM (≈ 128 µg/mL)
MIC [7]: 11.1 µM (≈ 16 µg/mL)
MIC [8]: 11.1 µM (≈ 16 µg/mL)
MIC [9]: 2.78 µM and 5.55 µM
SMILES: CC[C@H](C)[C@H](NC(=O)[C@@H]1CCCN1C(=O)[C@H](CC(C)C)NC(=O)[C@@H](N)Cc1ccccc1)C(=O)N[C@H](C(=O)NCC(=O)N[C@@H](CC(C)C)C(=O)N[C@@H](CC(C)C)C(=O)N[C@@H](CCCCN)C(=O)N[C@@H](CO)C(=O)N[C@@H](CC(C)C)C(=O)N[C@@H](CC(C)C)C(=O)N[C@@H](CCCCN)C(N)=O)C(C)C [FLPIVGLLKSLLK]

MIC [10]: 21 µM (≈ 20 µg/mL)
MIC [11]: 8.39 µM (≈ 7.99 µg/mL)
MIC [12]: ≥ 36.7 µM
SMILES: CC(C)C[C@H](NC(=O)[C@H](CC(C)C)NC(=O)[C@H](CC(C)C)NC(=O)[C@H](CC(C)C)NC(=O)[C@H](CC(C)C)NC(=O)[C@H](CCCCN)NC(=O)[C@H](CC(C)C)NC(=O)[C@@H](N)CCCCN)C(N)=O [KLKLLLLL]

MIC [13]: 2 µM (≈ 2.35 µg/mL)
MIC [14]: 18 µM (≈ 21.1 µg/mL)
MIC [15]: 12.7 µM (≈ 14.9 µg/mL)
MIC [16]: ≥ 37 µM
SMILES: NCCCC[C@H](N)C(=O)N[C@@H](CCCN=C(N)N)C(=O)N[C@@H](Cc1c[nH]c2ccccc12)C(=O)N[C@@H](CCCN=C(N)N)C(=O)N[C@@H](Cc1c[nH]c2ccccc12)C(=O)N[C@@H](CCCN=C(N)N)C(=O)N[C@@H](Cc1c[nH]c2ccccc12)C(=O)O [KRWRWRW]

MIC [17]: 19.9 µM (≈ 49.8 µg/mL)
MIC [18]: 5.33 µM (≈ 13.3 µg/mL)
MIC [19]: 4.27 µM (≈ 10.7 µg/mL)
MIC [20]: ≥ 39.8 µM
SMILES: CC(C)C[C@H](NC(=O)[C@H](CCCN=C(N)N)NC(=O)[C@H](Cc1ccccc1)NC(=O)[C@H](Cc1ccccc1)NC(=O)[C@@H](NC(=O)[C@H](CO)NC(=O)[C@@H](N)CC(C)C)[C@@H](C)O)C(=O)N[C@@H](Cc1ccccc1)C(=O)N[C@@H](CC(N)=O)C(=O)NCC(=O)N[C@@H](CCCN=C(N)N)C(=O)N[C@@H](CCCN=C(N)N)C(=O)N[C@@H](CCCN=C(N)N)C(=O)N[C@@H](CCCN=C(N)N)C(=O)N[C@@H](CO)C(=O)N[C@H](C(=O)N[C@@H](CCC(N)=O)C(=O)N[C@@H](Cc1c[nH]c2ccccc12)C(=O)N[C@@H](CS)C(=O)N[C@@H](C)C(=O)O)C(C)C [LSTFFRLFNGRRRRSVQWCA]

MIC [21]: ≥ 250 µM
MIC (Escherichia coli K-12): ≥ 250 µM
MIC [22]: ≥ 250 µM
MIC [23]: 250 µM (≈ 538 µg/mL)
MIC [24]: 250 µM (≈ 538 µg/mL)
SMILES: CC[C@H](C)[C@H](NC(=O)[C@H](CCC(=O)O)NC(=O)[C@H](CCC(N)=O)NC(=O)[C@H](CCC(=O)O)NC(=O)[C@H](CC(C)C)NC(=O)[C@H](C)NC(=O)[C@H](C)NC(=O)[C@@H](NC(=O)[C@H](CCC(=O)O)NC(=O)[C@H](CCC(N)=O)NC(=O)[C@H](CCC(=O)O)NC(=O)[C@H](CC(C)C)NC(=O)[C@H](C)NC(=O)[C@H](C)NC(=O)[C@@H](NC(=O)[C@@H](N)CCC(N)=O)[C@@H](C)CC)[C@@H](C)CC)C(=O)N[C@@H](C)C(=O)N[C@@H](C)C(=O)N[C@@H](CC(C)C)C(=O)N[C@@H](CCC(N)=O)C(=O)O [QIAALEQEIAALEQEIAALQ]

MIC [25]: 6.25 µM (≈ 16 µg/mL)
MIC [26]: 6.25 µM (≈ 16 µg/mL)
MIC [27]: 6.25 µM (≈ 16 µg/mL)
MIC [28]: 6.25 µM (≈ 16 µg/mL)
MIC [29]: 12.5 µM (≈ 32 µg/mL)
MIC [30]: 3.13 µM (≈ 8.02 µg/mL)
SMILES: CC[C@H](C)[C@H](NC(=O)[C@H](CO)NC(=O)CNC(=O)[C@@H](NC(=O)[C@@H](N)CCCN=C(N)N)[C@@H](C)CC)C(=O)N[C@@H](CC(C)C)C(=O)NCC(=O)N[C@@H](CCCN=C(N)N)C(=O)N[C@@H](CC(C)C)C(=O)N[C@@H](C)C(=O)N[C@@H](CCCCN)C(=O)NCC(=O)N[C@@H](CC(C)C)C(=O)N1CCC[C@H]1C(=O)N[C@H](C(=O)N[C@@H](CC(C)C)C(=O)N[C@H](C(=O)N[C@@H](CO)C(=O)N[C@@H](Cc1c[nH]c2ccccc12)C(=O)N[C@H](C(=O)N[C@@H](CCCCN)C(=O)N[C@@H](CC(N)=O)C(=O)N[C@@H](CCCN=C(N)N)C(N)=O)[C@@H](C)CC)[C@@H](C)CC)[C@@H](C)O [RIGSILGRLAKGLPTLISWIKNR]

MIC (Bacillus cereus): 30 µM (≈ 40.5 µg/mL)
MIC [31]: ≥ 40 µM
MIC [32]: 30 µM (≈ 40.5 µg/mL)
MIC [33]: 20 µM (≈ 27 µg/mL)
MIC [34]: 20 µM (≈ 27 µg/mL)
MIC [15]: 20 µM (≈ 27 µg/mL)
MIC [35]: 10 µM (≈ 13.5 µg/mL)
MIC [36]: 10 µM (≈ 13.5 µg/mL)
SMILES: NCCCC[C@H](NC(=O)[C@H](CCCCN)NC(=O)[C@H](CO)NC(=O)[C@H](CO)NC(=O)[C@H](CCCCN)NC(=O)[C@H](Cc1c[nH]c2ccccc12)NC(=O)[C@H](CCCN=C(N)N)NC(=O)[C@H](Cc1c[nH]c2ccccc12)NC(=O)[C@H](CCCN=C(N)N)NC(=O)[C@@H](N)CO)C(=O)O [SRWRWKSSKK]
MIC (Vibrio cholerae): 30 µM (≈ 40.5 µg/mL)

MIC [37]: 22.4 µM (≈ 33.6 µg/mL)
MIC [38]: 5.92 µM (≈ 8.89 µg/mL)
MIC [39]: 1.73 µM (≈ 2.6 µg/mL)
MIC [40]: 22.4 µM (≈ 33.6 µg/mL)
MIC [41]: 5.92 µM (≈ 8.89 µg/mL)
MIC [42]: ≥ 35.4 µM
MIC [43]: 2 µM (≈ 3 µg/mL)
SMILES: CC[C@H](C)[C@H](NC(=O)[C@H](CCCCN)NC(=O)[C@H](CCCCN)NC(=O)[C@H](Cc1ccccc1)NC(=O)[C@H](CC(C)C)NC(=O)[C@H](CCCCN)NC(=O)[C@@H](N)Cc1c[nH]c2ccccc12)C(=O)N[C@@H](CC(C)C)C(=O)N[C@@H](CCCCN)C(=O)N[C@@H](Cc1c[nH]c2ccccc12)C(=O)N[C@@H](CC(C)C)C(N)=O [WKLFKKILKWL]
